Experiments:
[1] = tested on: asexual blood-stage P. falciparum (clone 3D7); test: SYBR Green I parasite growth assay; type: cell-based, Plasmodium falciparum
Protocol: The impact of the peptidic boronic acids on replication of asexual blood-stage P. falciparum (clone 3D7) was assessed using a SYBR Green I assay, essentially as described by Smilkstein et al. ([22]). Briefly, test compounds (dissolved in dimethyl sulfoxide [DMSO] at concentrations ranging from 4 mM to 5 μM) were added in triplicate to wells of flat bottomed, 96-well microtitre plates (1 μL per well). Wells were then supplemented with 100 μL per well of a P. falciparum parasite culture at 0.1% parasitaemia, 1% hematocrit. Each assay plate also included DMSO-only control wells (1% vol/vol), as well as additional control wells containing uninfected RBCs only. Plates were incubated in sealed, humidified gassed chambers at 37 °C for 96 h to allow the parasites to undergo two entire cycles of erythrocytic growth. Wells were then supplemented with 100 μL 1:5,000 dilution of stock SYBR Green I (Life Technologies, catalog no. S7563) diluted in 20 mM Tris HCl pH 7.5, 5 mM EDTA, 0.008% (weight/vol) saponin, 0.08% (vol/vol) Triton ×100. Plates were agitated to mix, incubated for a further 1 h in the dark at room temperature, then 150 μL samples from each well transferred to a fresh white microwell plate and fluorescence quantified using a SpectraMax M5e plate reader and SoftMax Pro-6.3 software (Ex 485 nm/Em 530 nm). IC50 values were determined from dose–response curves obtained after subtracting background fluorescence values (obtained from the RBC-only wells) from all experimental readings.

[2] = tested on: elastase; test: Elastase inhibition assay (MeOSuc-AAPV-AMC cleavage); type: biochemical; settings: porcine elastase; estimated
Protocol: Assays for assessing inhibition of elastase a c t i vit y (from porcine pancreas; Sigm a-Aldrich E7885) were based on c leavage of the fluorogenic peptide substrate MeOSuc-AAPV-AMC (Sigm a- Aldrich […]
324740). Elastase was dissolved in 1 m M HCl, 2 m M CaCl2 to produce a stock solutio n of 1 mg/ml […]
(38.6 µM). F or inhibition as says , 100 µl of 1 µg/m l (38.6 nM) elastase in 25 m M T ris -HCl pH 8.2, […]
15 m M CaC l2 was d ispense d into we lls of whit e 9 6- we ll m icrowe ll p lates (Nunc), and pre- incubated […]
for 5 m in wi th com pound 3j at concentr ations ranging from 0-20 µM before addition of substrate […]
(10 µM f inal). F luorescence increase was m onitored continuousl y with tim e as above. PMSF was used as a positive inh ib itor control as above. All m easurem ents were perform ed in duplicate.

[3] = tested on: P. falciparum schizonts; test: Ring formation after pretreatment of schizonts and washout; type: cell-based, Plasmodium falciparum; settings: pretreated schizonts washed, fresh RBCs, assessed at 24 h; 3j 10 μM, C2 1 μM
Protocol: Short-term egress, invasion, and washout assays were performed essentially as described previously ([27], [28], [42]). Briefly, highly synchronous mature Percoll-enriched schizonts with or without added fresh RBCs (∼5% parasitaemia final) were incubated with compounds under test or vehicle only (DMSO, 1% vol/vol). For washout assays, schizonts were treated with C2 or various concentrations of inhibitor 3j for 1 to 4 h, then washed extensively (at least four times) prior to addition to fresh RBCs where required. After incubation at 37 °C for just 1 to 4 h (or overnight for invasion assays) to allow schizont rupture, cells were pelleted. Clarified culture supernatants were assessed for extent of hemoglobin release (a measure of schizont rupture) by absorption spectroscopy at 415 nm as described previously ([28]) or analyzed by Western blot using antibodies against SERA5 ([7], [11]). To quantify generation of new rings, samples of the cultures were fixed with 4% paraformaldehyde/0.02% glutaraldehyde and stained with SYBR Green I (Life Technologies) and then analyzed by flow cytometry on a BD FACSVerse using BD FACSuite software. Data were analyzed using FlowJo software. All cultures were also routinely analyzed by microscopic examination of Giemsa-stained thin films to visually assess parasite morphology.

[4] = tested on: P. falciparum schizonts; test: MitoTracker Red CMXRos viability staining; type: cell-based, Plasmodium falciparum; settings: 10 μM, 1 h
Protocol: Viewing chambers for live parasite microscopic examination were constructed as previously described ([7]). All images were recorded on a Nikon Eclipse Ni light microscope fitted with a Hamamatsu C11440 digital camera and Nikon N Plan Apo λ 63×/1.45NA oil immersion objective. For time-lapse video microscopy, differential interference contrast (DIC) images were taken at 10 s intervals over 30 min while fluorescence (mNeon Green) images were taken every 2 min to prevent bleaching. Time-lapse videos were analyzed and annotated using Fiji ([44]). For viability staining using the vital mitochondrial dye MitoTracker Red CMXRos (ThermoFisher Scientific; stored as a 10 μM stock in DMSO), the dye was added (20 nM final concentration) to a suspension of schizonts pretreated for 1 h with either DMSO (control, 1% vol/vol) or compound 3j (10 μM). The schizonts were incubated with the dye for 15 min at 37 °C, then washed twice, transferred to a viewing chamber, and observed immediately by dual DIC/fluorescence microscopy.

[5] = biological target: T1, recombinant PfSUB1 (rPfSUB1) (Plasmodium falciparum, UniProt Q8I0V0); test: rPfSUB1 fluorogenic peptide substrate cleavage inhibition assay; type: biochemical; settings: versus mammalian trypsin, chymotrypsin and elastase
T1 construct: Chymotrypsin-treated rPfSUB1 (expressed and purified as described previously); made in house
T1 sequence (Q8I0V0 218-688): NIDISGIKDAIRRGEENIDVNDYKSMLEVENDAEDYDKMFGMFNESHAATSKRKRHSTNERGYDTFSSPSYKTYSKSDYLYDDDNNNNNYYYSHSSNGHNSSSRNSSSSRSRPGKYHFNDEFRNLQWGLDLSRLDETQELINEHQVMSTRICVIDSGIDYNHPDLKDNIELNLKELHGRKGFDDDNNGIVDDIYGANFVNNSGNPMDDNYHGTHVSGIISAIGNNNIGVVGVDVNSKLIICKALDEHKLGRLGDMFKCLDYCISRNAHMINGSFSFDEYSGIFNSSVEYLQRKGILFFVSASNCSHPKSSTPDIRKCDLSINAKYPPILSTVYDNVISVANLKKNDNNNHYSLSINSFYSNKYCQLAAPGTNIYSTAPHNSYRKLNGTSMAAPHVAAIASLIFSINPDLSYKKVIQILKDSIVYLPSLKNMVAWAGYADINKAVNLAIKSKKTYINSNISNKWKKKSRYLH

Q: What does the source list for CC(=O)NC(C(=O)NC(C(=O)NCC(=O)NC(C)B(O)O)C(C)C)C1CCCC1 (stereo not shown) [3j]?
A: EC50 ([1]; Plasmodium falciparum, 3D7, 96 h, two erythrocytic growth cycles, SYBR Green I): 0.26 ± 0.06 µM; improved growth inhibitory potency ([1]; relative to compound 3b): ~10 fold; higher potency in long-term growth assay ([1]; relative to short-term egress assays): ~10 fold; elastase IC50 relative to that for PfSUB1 [2]: > 100 fold; ring production after washout [3]: No rings were produced; viability (MitoTracker Red CMXRos incorporation) [4]: remained viable; selectivity for PfSUB1 [5]: > 100 fold

Source: paper PMC8157947, “Peptidic boronic acids are potent cell-permeable inhibitors of the malaria parasite egress serine protease SUB1” (Proceedings of the National Academy of Sciences of the …, 2021)
